Laboratory results as given in ChEMBL document CHEMBL1134094, “Cell permeability as a parameter for lead generation in the protein Tyrosine kinase inhibition field” (2001).

Columns and labels:
[1] = test system: Caco-2; test: Cell membrane permeability for the compound determined by human Caco-2 monolayer assay (10e-5 cm/min); format: functional
[2] = test system: Caco-2; test: Substrate affinity was determined; passive; format: functional, cell-based; settings: Homo sapiens
[3] = test system: Caco-2; test: Computed polar surface area (PSA) for the compound […]; format: functional

Row | Structure (SMILES) | Pm [1] | Affinity [2] | 3D PSA [3]
1 | COc1ccc(-c2cn(Cc3ccccc3)c3ccc(O)nc23)cc1 | 90.5 10e-5*cm/min | passive | 45
2 | COc1ccc(-c2cn(Cc3ccccc3)c3ncnc(N)c23)cc1 | 78.2 10e-5*cm/min | passive | 58.2
3 | Oc1ccc2c(n1)c(-c1ccccc1)cn2Cc1ccccc1 | – | – | 33.4
4 | COc1ccc(Cn2cc(-c3ccc(OC)cc3)c3c(N)ncnc32)cc1 | 61.9 10e-5*cm/min | passive | 69.2
5 | Nc1ncnc2c1c(-c1ccccc1)cn2Cc1ccccc1 | – | – | 46.6
6 | COc1ccc(Cn2cc(-c3ccc(OC)cc3)c3nc(O)ccc32)cc1 | 83 10e-5*cm/min | passive | 55.1
